# From ChEMBL document CHEMBL1201862, “PubChem BioAssay data set” (2004)
#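 Tested at 5 concentrations; 48 h exposure; 96-well plates; endpoints linearly interpolated, else capped at highest concentration. GI50 = concentration required for 50% inhibition of growth.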 Activity calls are given as the source filed them. Rule as the data show it: active = GI50 up to about 1.1 µM and inactive = higher.
# Columns and labels:
# Assay in all cases: growth of human tumour cells (NCI), 48 h
# HCT-116 = test system: HCT-116
# OVCAR-5 = test system: OVCAR-5
# OVCAR-8 = test system: OVCAR-8
# ACHN = test system: ACHN
# SW-620 = test system: SW-620
# UACC-62 = test system: UACC-62
# TK-10 = test system: TK-10
# SK-OV-3 = test system: SK-OV-3
# SK-MEL-28 = test system: SK-MEL-28
# SF-539 = test system: SF-539
# HOP-92 = test system: HOP-92
# UACC-257 = test system: UACC-257
# KM12 = test system: KM12
# CCRF-CEM = test system: CCRF-CEM
# COLO 205 = test system: COLO 205
# SNB-19 = test system: SNB-19
# NCI/ADR-RES = test system: NCI/ADR-RES
# T47D = test system: T47D
# DU-145 = test system: DU-145
SMILES,GI50 (HCT-116),GI50 (OVCAR-5),GI50 (OVCAR-8),GI50 (ACHN),GI50 (SW-620),GI50 (UACC-62),GI50 (TK-10),GI50 (SK-OV-3),GI50 (SK-MEL-28),GI50 (SF-539),GI50 (HOP-92),GI50 (UACC-257),GI50 (KM12),GI50 (CCRF-CEM),GI50 (COLO 205),GI50 (SNB-19),GI50 (NCI/ADR-RES),GI50 (T47D),GI50 (DU-145)
CCCCCCC(=O)OC[n+]1ccc2c(C)c3[nH]c4ccccc4c3c(C)c2c1,0.376 µM (active),1.71 µM (inactive),0.34 µM (active),0.703 µM (active),0.31 µM (active),2.72 µM (inactive),3.13 µM (inactive),1.83 µM (inactive),1.56 µM (inactive),0.646 µM (active),3.18 µM (inactive),1.79 µM (inactive),,,,,,,
O=C(Cc1csc(-c2nc(CC(=O)NNc3ccccc3)cs2)n1)NNc1ccccc1,77.1 µM (inactive),> 100 µM (inactive),> 100 µM (inactive),> 100 µM (inactive),,> 100 µM (inactive),> 100 µM (inactive),> 100 µM (inactive),> 100 µM (inactive),> 100 µM (inactive),> 100 µM (inactive),> 100 µM (inactive),> 100 µM (inactive),34.9 µM (inactive),25.9 µM (inactive),> 100 µM (inactive),,,
COCC1C(=O)c2cc3c(cc2C12C=CC1(C=C2)OCCO1)OCO3 (centres undefined),2.21 µM (inactive),,3.58 µM (inactive),12.7 µM (inactive),2.48 µM (inactive),12.2 µM (inactive),20.6 µM (inactive),16.1 µM (inactive),14.5 µM (inactive),15.6 µM (inactive),14.5 µM (inactive),17.9 µM (inactive),4.57 µM (inactive),0.583 µM (active),10.3 µM (inactive),,,,
NC1=NS(=O)(=O)Nc2nc(-c3ccc([N+](=O)[O-])cc3)[nH]c21,> 100 µM (inactive),> 100 µM (inactive),> 100 µM (inactive),> 100 µM (inactive),> 100 µM (inactive),> 100 µM (inactive),> 100 µM (inactive),> 100 µM (inactive),> 100 µM (inactive),> 100 µM (inactive),> 100 µM (inactive),,> 100 µM (inactive),> 100 µM (inactive),> 100 µM (inactive),> 100 µM (inactive),,,
O=C(/C(=C\c1ccc(Cl)cc1)c1ccccc1)c1ccccc1,29.7 µM (inactive),22.7 µM (inactive),> 100 µM (inactive),38.8 µM (inactive),57.8 µM (inactive),> 100 µM (inactive),> 100 µM (inactive),> 100 µM (inactive),> 100 µM (inactive),> 100 µM (inactive),4.74 µM (inactive),42.5 µM (inactive),22 µM (inactive),> 100 µM (inactive),> 100 µM (inactive),,,,
Cc1nc2ccc(F)cc2c2c1CCN2c1ccccc1,8.18 µM (inactive),,20.9 µM (inactive),21.1 µM (inactive),23.4 µM (inactive),12 µM (inactive),22.9 µM (inactive),,16.2 µM (inactive),21 µM (inactive),12.2 µM (inactive),18.2 µM (inactive),23.9 µM (inactive),21.5 µM (inactive),11.9 µM (inactive),32.8 µM (inactive),18.3 µM (inactive),23.7 µM (inactive),31.4 µM (inactive)
N/N=c1/nc2n(c3ncccc13)C=CNN2,> 100 µM (inactive),> 100 µM (inactive),> 100 µM (inactive),> 100 µM (inactive),> 100 µM (inactive),> 100 µM (inactive),> 100 µM (inactive),> 100 µM (inactive),> 100 µM (inactive),> 100 µM (inactive),> 100 µM (inactive),> 100 µM (inactive),> 100 µM (inactive),> 100 µM (inactive),> 100 µM (inactive),> 100 µM (inactive),,,
CN1CCC2(CC1)/C(=N/C1CCCCC1)NC(=S)N2c1ccccc1,> 100 µM (inactive),> 100 µM (inactive),> 100 µM (inactive),89.3 µM (inactive),> 100 µM (inactive),> 100 µM (inactive),> 100 µM (inactive),> 100 µM (inactive),> 100 µM (inactive),> 100 µM (inactive),> 100 µM (inactive),> 100 µM (inactive),> 100 µM (inactive),> 100 µM (inactive),> 100 µM (inactive),> 100 µM (inactive),> 100 µM (inactive),> 100 µM (inactive),> 100 µM (inactive)
COc1cc2c(cc1OC)-c1cc(OC)c(OC)cc1[C@H]1CN3CCC[C@@]3(O)C=C21,< 0.0001 µM (active),< 0.0001 µM (active),< 0.0001 µM (active),< 0.0001 µM (active),< 0.0001 µM (active),< 0.0001 µM (active),0.000145 µM (active),< 0.0001 µM (active),< 0.0001 µM (active),< 0.0001 µM (active),< 0.0001 µM (active),< 0.0001 µM (active),< 0.0001 µM (active),< 0.0001 µM (active),< 0.0001 µM (active),< 0.0001 µM (active),,,
